According to paper PMC7885111, “ApmA Is a Unique Aminoglycoside Antibiotic Acetyltransferase That Inactivates Apramycin” (mBio, 2021):

Assays:
ApmA [1] = target: T1, ApmA (Staphylococcus aureus, UniProt A0A1D0AST6); assay: X-ray crystallography ([…] A); type: binding; settings: acetyl donor; crystals: 0.1 M citric acid pH 3.6, 30% PEG 200, 5 mM apramycin, 2 mM acetyl-CoA
T1 construct: full length, residues 1-274 described; synthetic gene in pET19b-TEV, E. coli BL21(DE3) host; N-terminal His10 tag cut by TEV for crystals; SeMet form also made; trimer
T1 sequence (A0A1D0AST6 entry or part of it): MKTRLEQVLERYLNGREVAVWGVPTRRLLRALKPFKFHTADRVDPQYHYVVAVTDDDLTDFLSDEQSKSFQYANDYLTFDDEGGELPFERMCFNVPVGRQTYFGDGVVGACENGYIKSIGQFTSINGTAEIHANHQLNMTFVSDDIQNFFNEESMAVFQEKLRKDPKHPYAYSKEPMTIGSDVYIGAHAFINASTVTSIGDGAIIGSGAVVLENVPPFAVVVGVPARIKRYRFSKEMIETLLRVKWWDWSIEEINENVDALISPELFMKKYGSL

ApmA [2] = target: T1, ApmA; assay: X-ray crystallography ([…] A); acetylation product shown by HR-ESI-MS and NMR; type: binding; settings: crystals: 0.2 M CaCl (so in the source), 20% PEG 3350, 5 mM apramycin; turnover: 500 uM acetyl-CoA, pH 7.5, room temperature; acetylated at 2'-NH2; PDB id printed as 7J6M2 (typo for 7JM2)

| SMILES | X-ray crystallography (2.30 A) (ApmA [1]) | X-ray crystallography (1.85 A); acetylation product shown by HR-ESI-MS and NMR (ApmA [2]) |
| --- | --- | --- |
| CC(=O)SCCNC(=O)CCNC(=O)[C@H](O)C(C)(C)COP(=O)(O)OP(=O)(O)OC[C@H]1O[C@@H](n2cnc3c(N)ncnc32)[C@H](O)[C@@H]1OP(=O)(O)O [acetyl-CoA] | 7JM1 (ApmA complex with acetyl-CoA) | – |
| CN[C@@H]1[C@@H](O[C@H]2O[C@H](CO)[C@@H](N)[C@H](O)[C@H]2O)O[C@H]2C[C@@H](N)[C@@H](O[C@H]3[C@H](O)[C@@H](O)[C@H](N)C[C@@H]3N)O[C@@H]2[C@@H]1O [apramycin] | – | Crystals of the apoenzyme and ApmA in complex with apramycin or acetyl-CoA were obtained |
